PubChem BioAssay AID651630 (Sanford-Burnham Center for Chemical Genomics, 2012)
The source made the active and inactive calls.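 How the source made its calls: active means lipid-stain IC50 at or below a set limit, with nuclear-stain toxicity IC50 at least five times higher; inactive means the rest.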

What was measured:
TAG = TAG lipid buildup inhibition with viability readout – cell-based, panel, Nile Red and DAPI fluorescence, H9c2, dose response (AID 651630); conditions: H9c2 cells, Nile Red TAG fluorescence, oleic acid;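 further: cells exposed to compound overnight before fixation and staining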
DAPI = experiment: as above; conditions: H9c2 cells, DAPI nuclear fluorescence (cytotoxicity counter-readout), oleic acid

Row | SMILES | IC50 (TAG; mean of runs) | IC50 (TAG; run 1) [µM] | IC50 (TAG; run 2) [µM] | IC50 cytotoxicity (DAPI nuclear signal decrease) (DAPI; mean of runs) | IC50 cytotoxicity (DAPI nuclear signal decrease) (DAPI; run 1) [µM] | IC50 cytotoxicity (DAPI nuclear signal decrease) (DAPI; run 2) [µM]
1 | CC1(C(=O)NCc2cccs2)Cc2c(-c3ccc4c(c3)OCO4)ccnc2O1 (stereo not given) | > 25 µM (inactive) | > 25 | > 25 | > 25 µM (inactive) | > 25 | > 25
2 | C/C(=N\Nc1ccc(Cl)nn1)c1ccccc1O | > 25 µM (inactive) | > 25 | > 25 | > 25 µM (inactive) | > 25 | > 25
3 | CCCCN(C)C(=O)c1ccc(Nc2nc(C(N)Cc3ccc(C(F)(F)F)cc3)cs2)nc1 (stereo not given) | > 25 µM (inactive) | > 25 | > 25 | > 25 µM (inactive) | > 25 | > 25
4 | O=C1c2ccccc2C(=O)c2c1ccc(C(=O)N1CCCCC1)c2NCCO | 3.42 µM | 3.47 | 3.38 | – | > 25 | > 25
5 | COc1ccc2sc(-c3ccc(N(C)C)cc3)c(C#CCCO)c2c1 | 8.86 µM | 7.52 | 10.2 | > 25 µM (inactive) | > 25 | > 25
6 | COc1ccc(C(C(=O)NC(C)(C)C)N(Cc2ccco2)C(=O)CCC(=O)Nc2cc(C)on2)cc1 (stereo not given) | 19 µM (inactive) | 19.9 | 18.1 | > 25 µM (inactive) | > 25 | > 25
7 | CNC(=O)c1ccc(-c2sc3nc(N4CCOCC4)c4c(c3c2N)CC(C)(C)OC4)o1 | 9.7 µM | 13.1 | 6.33 | > 25 µM (inactive) | > 25 | > 25
8 | COc1ccc(C(=O)Nc2ccc(Cl)cc2C(=O)NCc2ccco2)cc1 | 16.9 µM (inactive) | 16.2 | 17.7 | > 25 µM (inactive) | > 25 | > 25
9 | O=[N+]([O-])c1ccccc1/C=C/C=N/Nc1ccc(S(=O)(=O)Nc2ccc(Cl)cc2)cc1[N+](=O)[O-] | 4.41 µM | 3.5 | 5.32 | – | > 25 | > 25
10 | O=c1cc(N2CCN(c3cccc(Cl)c3)CC2)[nH]c(=O)n1C1CCCCC1 | 3.47 µM | 5.5 | 1.44 | – | 18.2 | > 25
11 | C[C@@H]1CN([C@H](C)CO)C(=O)c2c(c3ccccc3n2C)-c2ccccc2CO[C@H]1CN(C)Cc1ccc(-c2ccccc2)cc1 | 14.9 µM | 9.62 | 20.1 | > 25 µM (inactive) | > 25 | > 25
12 | Cc1cc(NC(=O)CSc2nc(C(C)C)nc3sc4c(c23)CCC(C)C4)no1 (stereo not given) | > 25 µM (inactive) | > 25 | > 25 | > 25 µM (inactive) | > 25 | > 25
13 | Cc1nc(C(=O)Nc2ccccc2Cl)cc2c1[nH]c1ccccc12 | 3.06 µM | 2.87 | 3.24 | – | > 25 | > 25
14 | COc1ccccc1-c1cc(NC=O)c2ncc(-c3cccc(C(=O)N(C)C)c3)n2c1 | 15.3 µM (inactive) | 17.5 | 13.1 | > 25 µM (inactive) | > 25 | > 25
15 | c1ccc(N=NC2=NN(c3ccccc3)CS2)cc1 | 3.69 µM | 3.57 | 3.8 | – | > 25 | > 25
16 | CCOc1ccc(CCNC(=O)CN2CCN(Cc3ccccc3F)C2=O)cc1OCC | 3.01 µM | 2.44 | 3.57 | – | > 25 | > 25
